This note sets out measurements from publication PMC8945229, “Development and Biological Characterization of a Novel Selective TrkA Agonist with Neuroprotective Properties against Amyloid Toxicity” (Biomedicines, 2022).

Data set [1] has as its system CYP1A2, CYP2A6, CYP2B6, CYP2C9, CYP2C19, CYP2D6 and CYP3A4. Briefly: CYP450 catalytic and metabolic activity, seven isoforms. The format is in vitro ADME, human. Conditions: 1 μM. The protocol: Baculosomes® expressing CYP1A2, CYP2A6, CYP2B6, CYP2C9, CYP2C19, CYP2D6 and CYP3A4 human CYP450 isoenzymes were purchased from Thermo Fisher Scientific (Waltham, MA, USA). All reagents were handled and prepared according to the manufacturer’s protocol. ENT-A013 was tested at 1 μM. Enzymatic activity in the presence of ΕΝΤ-A013 was assessed based on the kinetic model for CYP1A2, CYP2A6, CYP2B6, CYP2C9, CYP2C19, CYP2D6 and CYP3A4 isoforms. Reactions took place in triplicates at 20 °C. Glucose-6-phosphate at 333 mM and glucose-6-phosphate-dehydrogenase at 30 U/mL in 100 mM potassium phosphate, pH 8.0 (regeneration system) converted NADP^+ (10 mM in 100 mM potassium phosphate, pH 8.0) into NADPH to initiate the CYP450 reaction. Upon the addition of the fluorescent substrate, immediately (<2 min), the fluorescence signal was monitored over time at suitable excitation and emission wavelengths by Lionheart FX (BioTek, Winooski, VT, USA) (Table S2). CYP450 inhibition (%) was determined based on the reaction rates (fluorescence intensity changes per unit time). A total of n = 60 measurements per minute were acquired for a total time of t = 60 min. % Inhibition= (1 − X/A) × 100%(1) where: X is the rate observed in the presence of test-compound; A is the rate observed in the presence of negative (solvent, DMSO) control.

In a further data set the target is T1, TrkA (Rattus norvegicus, UniProt P35739).
T1 construct: we used PC12 cells, a cell line that express TrkA and p75^NTR; host or cells: PC12
T1 sequence (P35739 33-799): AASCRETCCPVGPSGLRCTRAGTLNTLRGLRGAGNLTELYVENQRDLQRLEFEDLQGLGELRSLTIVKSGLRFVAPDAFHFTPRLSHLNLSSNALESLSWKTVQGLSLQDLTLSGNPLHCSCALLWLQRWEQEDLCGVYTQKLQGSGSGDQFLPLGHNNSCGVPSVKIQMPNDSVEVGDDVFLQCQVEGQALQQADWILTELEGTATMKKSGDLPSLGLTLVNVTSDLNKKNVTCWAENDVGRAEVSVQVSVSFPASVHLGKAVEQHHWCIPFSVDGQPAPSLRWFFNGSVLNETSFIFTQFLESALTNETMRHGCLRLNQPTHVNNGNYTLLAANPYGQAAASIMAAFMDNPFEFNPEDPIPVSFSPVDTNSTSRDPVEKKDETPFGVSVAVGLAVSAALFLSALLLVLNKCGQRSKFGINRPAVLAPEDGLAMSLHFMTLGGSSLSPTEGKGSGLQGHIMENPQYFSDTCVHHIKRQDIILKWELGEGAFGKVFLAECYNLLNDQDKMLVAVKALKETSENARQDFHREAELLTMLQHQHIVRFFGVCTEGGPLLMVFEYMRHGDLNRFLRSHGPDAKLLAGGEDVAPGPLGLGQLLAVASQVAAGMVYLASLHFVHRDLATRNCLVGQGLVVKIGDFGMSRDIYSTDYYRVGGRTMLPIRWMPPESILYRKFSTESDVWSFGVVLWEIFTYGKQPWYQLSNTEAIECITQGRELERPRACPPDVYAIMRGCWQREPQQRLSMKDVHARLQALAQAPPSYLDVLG
Briefly: TrkA phosphorylation in PC12 cells (IP with TrkA antibody, Western blot against phosphorylated Tyrosine). It counts as cell-based. The protocol:
For immunoprecipitation experiments PC12 or HEK293T, cells were used when at 70–80% confluent. […] Cells were then lysed in Pierce™ IP Lysis Buffer (87788, Thermo Fischer Scientific, Waltham, MA, USA) containing proteases (539138, Calbiochem, Darmstadt, Germany) and phosphatase inhibitors (524629, Calbiochem, Darmstadt, Germany). Lysates were then immunoprecipitated overnight at 4 °C with TrkA antibody (1:100, 06-574, Sigma-Aldrich, St. Louis, MO, USA) (Table S1) or p75^NTR antibody (1:100, ab6172, Abcam plc., Cambridge, UK) followed by 4 h incubation with protein G-plus agarose beads (sc-2002, Santa Cruz Biotechnology, Inc., Dallas, TX, USA). Beads were then collected, washed 3X with lysis buffer, resuspended in SDS loading buffer and subjected to Western blot against phosphorylated Tyrosine (1:1000, BAM1676, R&D Systems, Inc., Minneapolis, MN, USA) or Traf6 antibody (1:2000, ab33915, Abcam, plc., Cambridge, UK). Whole cell lysates were subjected to Western blot against TrkA (1:1000, 06-574, Sigma-Aldrich, St. Louis, MO, USA), phosphorylated TrkB (1:1000, ABN1381, Sigma-Aldrich, St. Louis, MO, USA), phosphorylated TrkC (1:1000, STJ90960, St John’s Laboratory, Ltd., London, UK), TrkB (1:1000, 07-225-I, Sigma-Aldrich, St. Louis, MO, USA), TrkC (1:1000, C44H5, Cell Signaling Technology, Danvers, MA, USA), p75 (1:1000, 839701, Biolegend, Inc., San Diego, CA, USA), Traf6 (1:2000, ab33915, Abcam, plc., Cambridge, UK) phosphorylated Akt (1:1000, 9721S, Cell Signaling Technology, Danvers, MA, USA), phosphorylated Erk1/2 (1:1000, 9101S, Cell Signaling Technology, Danvers, MA, USA), total Akt (1:1000, 4691S Cell Signaling Technology, Danvers, MA, USA) and total Erk1/2 (1:1000, 4695S, Cell Signaling Technology, Danvers, MA, USA).
Background: Immunoblotting shows a protein as a band on a membrane.

A further data set has as its system Akt. Briefly: Akt phosphorylation in PC12 cells (Western blot). It counts as cell-based. More on the design: unit not given here. Conditions: 500 nM, 30′. The protocol: For immunoprecipitation experiments PC12 or HEK293T, cells were used when at 70–80% confluent. Cells were starved of serum for 4 h and subsequently treated with 100 ng/mL NGF or 500 nM of compound ENT-A013 for 30′. Cells were then lysed in Pierce™ IP Lysis Buffer (87788, Thermo Fischer Scientific, Waltham, MA, USA) containing proteases (539138, Calbiochem, Darmstadt, Germany) and phosphatase inhibitors (524629, Calbiochem, Darmstadt, Germany). Lysates were then immunoprecipitated overnight at 4 °C with TrkA antibody (1:100, 06-574, Sigma-Aldrich, St. Louis, MO, USA) (Table S1) or p75^NTR antibody (1:100, ab6172, Abcam plc., Cambridge, UK) followed by 4 h incubation with protein G-plus agarose beads (sc-2002, Santa Cruz Biotechnology, Inc., Dallas, TX, USA). Beads were then collected, washed 3X with lysis buffer, resuspended in SDS loading buffer and subjected to Western blot against phosphorylated Tyrosine (1:1000, BAM1676, R&D Systems, Inc., Minneapolis, MN, USA) or Traf6 antibody (1:2000, ab33915, Abcam, plc., Cambridge, UK). […]

With `CC12CCC(O)CC1=CCC1C2CCC2(C)C1CCC21CC1C=CBr` [ENT-A013, (2′R,3S,17S)-2′-(2-Bromovinyl)-5-Androstene-17,1′-Cyclopropan-3-ol], the “enzyme (catalytic) activity of the seven major CYP450s” value in data set [1] (relative fluorescence of product) is reported as “did not decrease the enzyme (catalytic) activity”. Besides, the “CYP450 (%) metabolic activity, residual % of time zero (in words)” value in data set [1] (t = 0 to t = 60 min) is on record as “overall metabolically stable”. The “time TrkA phosphorylation is sustained after treatment” value on TrkA (PC12 cells, 10, 30 or 60′ treatment) is reported as “up to 1 hr”. In addition, at TrkA (PC12 cells, compound 500 nM or NGF 100 ng/mL, 30′), the TrkA phosphorylation is reported as 2.05 ± 0.21 % of control FC. This compound yielded an Akt phosphorylation in the data set with Akt of 3.8 ± 1.15.
